# Data taken from publication PMC6443376 (Journal of medicinal chemistry, 2018).
# Like-named read-outs stand apart in the source and are kept apart here.
# Experiments:
# [1] = system: P3 mouse cochlear explants; assay: Cochlear explant cultures treated with cisplatin, outer hair cell counts; details: for Protection at higher doses in explants treated with cisplatin: dose-response
# [2] = system: cisplatin-induced ototoxicity in adult FVB mice; format: in vivo, mouse; details: 50 μM transtympanic
# [3] = system: outer hair cells, 32-kHz region of the organ of Corti; assay: Morphologic analysis and OHC counts of cochleae from cisplatin-treated mice; format: in vivo, mouse
# [4] = weekly dosing schedule, phase I study; cited from earlier work
# [5] = system: cisplatin-induced ototoxicity in adult FVB mice; details: earlier study of the authors; cited from earlier work
# [6] = system: adult FVB mice; assay: Toxicity of compound alone delivered transtympanically; details: 2, 10 or 50 μM, single transtympanic injection, 15 days after injection
# [7] = molecular target: Cdk2/Cyclin A (Homo sapiens, UniProt P24941); assay: CDK2 inhibition assay; format: biochemical
molecule,measurement,setting,value
"O=C(NC1CCNCC1)c1n[nH]cc1NC(=O)c1c(Cl)cccc1Cl [AT7519, N-(4-piperidinyl)-4-(2,6-dichlorobenzoylamino)-1H-pyrazole-3-carboxamide]",Protection in cochlear explant cultures treated with cisplatin,"[1]; compound 25 nM, cisplatin 150 μM",excellent protection
same,Protection at higher doses in explants treated with cisplatin,[1],loss of activity was observed at higher doses
Cc1ncc(-c2ccnc(Nc3ccc(S(C)(=O)=O)cc3)n2)n1C(C)C [AZD5438],Overall protection against cisplatin-induced ototoxicity in mice,[2],fully protective
same,OHC loss in the 32-kHz region,[3]; 50 μM transtympanic 1 h before and 24 h after cisplatin,virtually no OHC loss
same,Safety and tolerability in patients,[4],safe and well tolerated
O=C1Cc2c([nH]c3ccc(Br)cc23)-c2ccccc2N1 [Kenpaullone],Overall protection against cisplatin-induced ototoxicity in mice,[5],complete protection
O=C(N[C@H]1CC[C@H](O)CC1)c1n[nH]cc1NC(=O)c1c(F)cccc1F [analog 7],Overall protection against cisplatin-induced ototoxicity in mice,[2],some—but not complete—protection
same,OHC loss in middle basal turn (32-kHz region) vs cisplatin alone,[3]; 50 μM transtympanic 1 h before cisplatin,Substantially less OHC loss
same,Protection against cisplatin toxicity in cochlear explants,"[1]; compound 150 nM, P3 mouse explants, OHC counts",significant protection
same,Protection at higher doses in explants treated with cisplatin,[1],maintains the level of protection at higher doses
same,Toxicity in the ears of mice in the absence of cisplatin,[6],nontoxic
O=C(NC1CCN(C(=O)c2c(Cl)cccc2Cl)CC1)c1n[nH]cc1NC(=O)c1c(Cl)cccc1Cl [analog 14],IC50,[7],0.76 µM
AZD1080,EC50,"[1]; read-out: Explant EC50, estimated EC50 based on 2–3 tested dose concentrations, cisplatin 150 μM",15 µM
